Test results published in US9820483B2, “Microbial composition” (Rohm and Haas Company, priority 2011, dated 2017).
Where two headings read alike, the source gives them in different places.

Columns and labels:
[1] = test system: Escherichia coli (10536 strain); test: Antimicrobial efficacy in water, 15 seconds contact, mean bacterial survival NMBS on TSA plates; assay type: cell-based; conditions: 0.06% w/v alone, E. coli, 15 s
Experimental: Antimicrobial efficacy is tested against a representative pathogenic bacterial organism, Gram negative Escherichia coli. Concentrations of actives are expressed in terms of the percentage weight/volume (% w/v) throughout the following Examples. […] Here, OD620 indicates the absorbance of a sample in a cuvette of 1.0 cm path length at a wavelength of 620 nm. This bacterial stock was used for assaying against antimicrobial actives (in triplicate). The following assay describes the testing of 8 materials using 6 dilutions across half of a 96-well micro titre plate (MTP). […] 1M solutions of the test actives were prepared in dimethylsulphoxide (DMSO). […] This MTP was labelled as the “Screening plate”. […] The composition of the neutralising solution was as follows: pancreatic digest of casein, 5.0 g/L; […] 270 μl of tryptone diluent solution was added to all the remaining wells of the Dilution MTP (columns 2-6). […] After a contact time of 15 seconds, the mixtures were quenched by transferring 30 μl volumes of the mixtures into the 270 μl D/E neutralising solution in the prepared dilution plate, using aspiration to mix. […] Mean bacterial survival numbers NMBS (expressed in Log CFU/ml) are obtained by first determining the segment of the TSA plate where the number of bacterial colonies is countable. From the colony number in this segment. NMBS is calculated by the formula: […] DF may range from 1 for the quench, to 6 for the highest dilution). The factor 100/3 is a conversion factor from the volume of the inocula spot to one milliliter. Every assay test was performed in triplicate. The reported mean bacterial survival results are the average of such a triplet, the error is the corresponding standard deviation. […] Such a count of about 7 is generally observed when bacteria are exposed to non-biocidal materials.

[2] = test system: Escherichia coli (E. coli—ATCC #10536); test: Automated assessment of efficacy in model surfactant base (2.85% sodium cocoyl glycinate + 1.85% sodium lauroamphoacetate, pH 10), 15 seconds exposure, delta OD450/OD590 in D/E quench; assay type: cell-based; conditions: for MBC: in 2.85% sodium cocoyl glycinate + 1.85% sodium lauroamphoacetate solution at pH 10, E. coli
Experimental: Solutions were prepared such that the concentrations of the surfactant components and test actives were 1.1× the final desired concentration in order to allow for dilution with the bacterial inoculum in the test. The solutions were manually adjusted to pH 10.0 by dropwise addition of sodium hydroxide solution, as measured with a pH meter at ambient temperature.
Tests were conducted using standard microtiter plate assays using an automated liquid handling system. 270 μl of the surfactant test solution was pipetted into each well of the microtitre plate and 30 μl of the bacterial suspension was then added. After exactly 15 seconds of bacterial exposure, a 30 μl volume of bacterial cells was withdrawn and transferred to 270 μl of D/E quench solution. After 5 minutes in the D/E quench, the optical density (OD) was measured for each plate in turn at two specific wavelengths (450 nm and 590 nm). These provide a dual check of antimicrobial activity, as the OD450 reading is specific for the yellow colour of D/E quench when bacterial growth is observed, whereas OD590 is specific for the initial purple colour of the D/E quench which is retained if no bacterial growth is observed. After the time zero OD measurements, plates were then incubated at 37° C. overnight (16 hours) before repeating the OD measurements. Delta OD values were calculated by subtracting […]. Bacterial growth is observed as an increase in OD450 and a decrease in ΔOD590. To identify antibacterially efficacious systems (those preventing appreciable bacterial growth after incubation), the following threshold changes in OD readings have been adopted: if (1). OD450 increases by less than 0.2 absorbance unit on incubation and (2). OD590 decreases by less than 0.35 unit on incubation. Conversely, where OD450 increases by more than 0.2 AU and OD590 decreases by more than 0.35 unit after incubation, corresponding to a colour shift from purple to yellow, the test system allows bacterial growth and is not deemed efficacious. Four replicate measurements in the same plate have been made for each test system. The number of replicate wells showing either bacterial growth or no growth is also readily assessed by eye by following the colour change.
Dose responses for individual components and binary mixtures of actives at a fixed concentration ratio were generated by sequential dilution of liquors with further surfactant solution to obtain a series of endpoints.
In some selected cases, the combinations were also tested at the weight ratio 1:1.
The method used was the same as in the above Table.

[3] = test system: Staphylococcus aureus (10788 strain); test: Antimicrobial efficacy of actives against S. aureus in water, 15 seconds contact, NMBS; assay type: cell-based; conditions: for NMBS: 15 s
Experimental: Selected materials were also tested against a representative Gram positive Staphylococcus aureus.
The following assay describes the testing of 8 materials using 6 dilutions across half of a 96-well micro titre plate (MTP). Using this approach it is possible to assay 16 actives (without replicates) with one full dilution plate, replicating this set up in two halves of the plate columns, 1-6 and 7-12.
Bacterial stock (30 μl) was then added to the prepared 270 μl of the solution of actives in the Screening Plate and mixed, using a multichannel pipette with 8 tips to aspirate and dispense the same volume of bacterial stock in parallel to 8 wells in rows A-H. After a contact time of 15 seconds, the mixtures were quenched by transferring 30 μl volumes of the mixtures into the 270 μl D/E neutralising solution in the prepared dilution plate, using aspiration to mix. After exactly 5 minutes in the D/E neutralising solution, […] were transferred from column 1 to column 2 of the Dilution MTP and mixed, before transferring further 30 μl volumes from column 2 into column 3. This process was repeated serially diluting the bacteria across the plate to column 6.
30 μl volumes from each well in the Dilution MTP were transferred onto pre-labelled segment of Tryptone Soya Agar (TSA) plates starting from the lowest bacterial concentration (highest dilution, column 6) to the highest bacterial concentration (column 1). The TSA plates were allowed to stand for ca. 2 hours so that the 30 μl inocula spots could dry and the plates were then inverted and incubated overnight at 37° C. before enumerating the bacterial colonies at the labelled dilutions to determine the effects of the actives on bacterial growth.
Mean bacterial survival numbers NMBS (expressed in Log CFU/ml) are obtained by first determining the segment of the TSA plate where the number of bacterial colonies is countable. From the colony number in this segment. NMBS is calculated by the formula: NMBS=log {Ncol·10^DF·100/3} Here, Ncol is the colony count, and DF is the dilution factor taken from the MTP-well corresponding to the TSA plate segment (i.e. DF may range from 1 for the quench, to 6 for the highest dilution). The factor 100/3 is a conversion factor from the volume of the inocula spot to one milliliter.
Every assay test was performed in triplicate.
Thus, a value of NMBS as of about 7 corresponds to a count of about […] from the fifth dilution well, i.e. with DF=5. Such a count of about 7 is generally observed when bacteria are exposed to non-biocidal materials. In case no surviving colonies are observed in any segment of the TSA plate, this is interpreted as complete kill and a value of NMBS=0 is reported.
S. aureus Bacterial stock was prepared as shown below and the antibacterial efficacy of the active was carried out as explained earlier for E. Coli.
An overnight culture of Staphylococcus aureus (10788 strain) was inoculated onto a Tripticase Soy Agar (TSA) plate and grown for ca. 18 hrs at 37° C. The culture of S. aureus was washed from the plate using sterile saline (0.85% NaCl) solution and a sterile spreader and suspended in 50 ml saline. This suspension was separated into equal volumes and centrifuged at 4000 rpm for 15 minutes. Following centrifugation the pellet was re-suspended in saline to give a final concentration of 0.35 OD620 equivalent to about 10^8 cells per milliliter for this particular organism. Here. OD620 indicates the absorbance of a sample in a cuvette of 1.0 cm path length at a wavelength of 620 nm. This bacterial stock was used for assaying against antimicrobial actives (in triplicate).

[4] = test system: E. coli ATCC #10536; test: Synergy test: high resolution MBC microtiter plate assay in phosphate buffer containing 35% dipropylene glycol, 15 seconds contact; assay type: cell-based, Escherichia coli; conditions: E. coli 10536, complete kill in 15 seconds, phosphate buffer with 35% DPG
Description: One measure of synergy is the industrially accepted method described by Kull, F. C.; Eisman. P. C.; Sylwestrowicz, H. D. and Mayer, R. L., in Applied Microbiology 9:538-541 (1961), using the ratio determined by the formula: Qa/QA÷Qb/QB=Synergy Index (“SI”) wherein: QA=concentration of compound A (first component) in percent, acting alone, which produced an end point (MBC of Compound A). […]=concentration of compound A in percent, in the mixture, which produced an end point. QB=concentration of compound B (second component) in percent, acting alone, which produced an end point (MBC of Compound B). Qb=concentration of compound B in percent, in the mixture, which produced an end point.
When the sum of Qa/QA and Qb/QB is greater than one, antagonism is indicated. […] The lower the SI, the greater is the synergy shown by that particular mixture. The minimum biocidal concentration (MBC) of a microbicide is the lowest concentration tested under a specific set of conditions that provides complete kill of the tested microorganisms.
Synergy tests were conducted using standard microtiter plate assays with phosphate buffer containing 35% dipropylene glycol (DPG). In this method, a wide range of combinations of chemicals was tested by conducting high resolution MBC assays of Component (A) in the presence of various concentrations of Component (B). High resolution MBCs were determined by adding varying amounts of microbicide to one column of a microtiter plate and doing subsequent ten-fold dilutions using an automated liquid handling system to obtain a series of closely spaced endpoints. The MBC plate was inoculated one column at a time with the test microorganism. An aliquot of the inoculated well was transferred at 15 seconds to a plate containing a neutralizing agent (D/E Neutralizing Broth), mixed and held for 5 minutes before being transferred to a growth plate containing trypticase soy broth (TSB). The TSB plate was incubated at 37° C. and read for the presence/absence of growth at 24 hours. The lowest level tested that provided complete kill (as evidenced by no growth in the microtitre plate) of the test organisms in 15 seconds is the minimum biocidal concentration (MBC).
The synergy of the combinations of the present invention was determined against a bacterium, Esherichia coli (E. coli—ATCC #10536), at a concentration of approximately 1×10^8 bacteria per mL. This microorganism is representative of natural contaminants in many consumer and industrial applications.

`CCCc1ccccc1O` [2-n-propylphenol] was tested, and the NMBS [1] was 7.68 log CFU/ml, the MBC [2] was 0.175 % w/v and the “No. of replicates showing growth (out of 4)” value ([2]; single active at 0.05% w/v) was 4. The “Δ OD 590 nm = OD590 (time = 16 hours) − OD590 (time zero), Mean” value (shortened to “Δ OD 590 nm = OD590”) ([2]; single active at 0.05% w/v) was 0.46, the “No. of replicates showing growth (out of 4)” value ([2]; single active at […] w/v) was 4 and the “Δ OD 590 nm = OD590” value ([2]; single active at […] w/v) was 0.66. For the same compound, the NMBS ([3]; 0.03% w/v alone, S. aureus) was 7.12 log CFU/ml, the “bacterial kill (in words)” value ([3]; […] 2-propylphenol alone, S. aureus) was “Complete bacterial kill” and the MBC ([3]; component alone, against S. aureus, in water) was 0.25 % w/v.

`C=C(C)C1CC=C(C)C(O)C1` (stereo not drawn) [2-methyl-5-(prop-1-en-2-yl)cyclohex-2-enol] was tested, and the “MBC of the component acting alone (QA or QB; Qa or Qb with the other component at 0)” value [4] was 0.7 weight %, the MBC ([2]; Escherichia coli, ATCC10536, 15 s, read-out: MBC) was 4000 µg/mL and the “No. of replicates showing growth (out of 4)” value ([2]; single active at 0.2% w/v) was 4. The “Δ OD 590 nm = OD590” value ([2]; single active at 0.2% w/v) was 0.61, the “ΔOD 450 nm = OD450 (time = 16 hours) − OD450 (time zero), Mean” value (from here on “ΔOD 450 nm = OD450”) ([2]; single active at 0.2% w/v) was −0.51 and the “No. of replicates showing growth (out of 4)” value ([2]; single active at 0.3% w/v) was 4. The “Δ OD 590 nm = OD590” value ([2]; single active at 0.3% w/v) was 0.59, the “ΔOD 450 nm = OD450” value ([2]; single active at 0.3% w/v) was −0.50 and the “No. of replicates showing growth (out of 4)” value ([2]; single active at 0.4% w/v) was 4. For the same compound, the “Δ OD 590 nm = OD590” value ([2]; single active at 0.4% w/v) was 0.47, the “ΔOD 450 nm = OD450” value ([2]; single active at 0.4% w/v) was −0.35 and the “No. of replicates showing growth (out of 4)” value ([2]; single active at […] w/v) was 4. The “Δ OD 590 nm = OD590” value ([2]; single active at […] w/v) was 0.63, the “ΔOD 450 nm = OD450” value ([2]; single active at […] w/v) was −0.50 and the NMBS ([3]; 0.5% w/v alone, S. aureus) was 7.27 log CFU/ml.
